# In patent US20250275993A1, “GLYCOSYLATION INHIBITORS AS THERAPEUTICS FOR STROKE” (The Regents of the University of California, priority 2022, published 2025):
# Tests used:
# [1] = system: complex N-glycans of BCECs; assay: Monosaccharide and sialic acid composition analysis of BCECs; assay type: cell-based, bovine; settings: fucose 8 hours, mannose 12 hours, galactose 24 hours, Neu5Ac 8 and 24 hours
# Protocol: Monosaccharide composition analysis was done using HPAEC-PAD (Thermo-Dionex ICS3000) and nmole amount of each monosaccharide present in 25 μg of protein was calculated. Samples were hydrolyzed using 2 N trifluoroacetic acid (TFA) at 100° C. for 4 hrs. Followed by removal of acid using dry nitrogen flush. To ensure complete removal of acid, samples were co-evaporated twice with 100 μl of 50% isopropyl alcohol (IPA). Finally, the samples were dissolved in Milli-Q water and injected on HPAEC-PAD. Monosaccharide profile was done using Dionex CarboPac PAI column (250 mm×4 mm; with 50 mm×4 mm guard column). An isocratic solvent mixture of 19 mM sodium hydroxide with 0.95 mM sodium acetate was used at a flow rate of 1 ml per minute for 25 mins. Data were acquired using manufacture supplied standard Quad waveform for carbohydrates. All neutral and amino sugars were identified and quantified by comparing with authentic monosaccharide standard mixture consisting of L-fucose, D-galactosamine, D-glucosamine, D-galactose, D-glucose and D-mannosc. Mild acid hydrolysis was used to release sialic acid. Briefly, samples were treated with 2 M acetic acid at 80° C. for 3 hrs followed by removal of excess acid using speed vacuum. […] Known amount of standard Neu5Ac was used to quantify amount of sialic acid in samples.
# [2] = mouse, in vivo, po
# Protocol: Following oral administration, there was a relatively rapid decline in ManN plasma levels. Plasma free ManN levels reached a peak level of −100 nmol/ml plasma at 1 hr. […] 2 hours after oral feeding of 20% ManN, muscle samples were taken from the ischemic legs. A significant amount of ManN reached the ischemic legs, with 0.17+1−0.18 nmol/mg protein of free ManN and 0.91+1−0.24 nmol/mg protein of ManN-6p.
# To test ManN stability in wound fluid collected from mice with skin infection as described below, 1.5 μl of 5% ManN solution was added to each 200 μl wound fluid which was first diluted 1:1 (v/v) with PBS. At each time point, samples were taken from 37° C. incubator and stored at −80° C. Plasma proteins were precipitated by adding ice cold acetonitrile to plasma: acetonitrile 1:3 (v/v) ratio. Samples were kept over ice for 1 hr and then centrifuged at 12000 g for 10 min at 7° C. to form a pellet. Supernatants were transferred to other tubed, dried down on a Speed Vac and then reconstituted in UltraPure distilled water and filtered through pre-washed Nanosep 3K Omega filters (Pall Corporation). The filtrate was dried down on Speed Vac. The dry samples were dissolved in 100 μl of water and 2 μl plasma or wound fluid sample was subjected to HPLC analysis. Neutral and amino sugars were separated on a Dionex CarboPac PAI column 4 mm×250 mm with 4 mm×50 mm guard column. An isocratic gradient of 19 mM sodium hydroxide with 0.95 mM sodium acetate was used at a flow rate of 1 ml/min with 20 min run. Data was collected using the Dionex ICS-3000 HPLC system with pulsed amperometric detector using standard Quad waveform. ManN was identified and quantified by comparison with monosaccharide standard using Thermo Scientific Chromeleon software. No ManN samples served as negative controls.
# [3] = system: A673; assay: A673 proliferation assay; assay type: cell-based; settings: ManN
# Protocol: Proliferation assays with fibroblasts were done in low-glucose DMEM containing 1% FBS, with or without 10 ng/ml bFGF, or 100 ng/ml human EGF and the assay was ended at day 3. ARPE-19 cells were gently lifted with 0.025% trypsin and plated in RtEGM media (Clonetics) containing 2% FBS, L-glutamine, human bFGF and GA-1000. Once cells were attached to plates, serum-free RtEGM media was used to maintain the cultures. For proliferation assays, 1500 human RPE cells were plated into 96-well plates in low-glucose DMEM containing 1% FBS. A673, U87MG, Calu6 and AML12 cells were grown until confluent and were then harvested and re-suspended in appropriate assay media. For proliferation assays, cells were plated at the density of 1000-2000 cells/well in low-glucose DMEM containing 5% FBS or otherwise stated. Bovine pituitary cells (pituitary folliculostellate cells) were isolated as previously described. For proliferation assays with human epidermal keratinocytes, human DMVECs and human dermal fibroblast cells, 1000 cells/well were plated in low-glucose DMEM containing 1% FBS with or without various growth factors. The assay was ended at day 3 for bovine pituitary cells and at day 4 for all the other cell types. […] Four days later, tumor cell growth was measured by the MTS assay (Promega, Madison, WI), a colorimetric assay that measures metabolic activity of viable cells. […]
# [4] = system: vascular permeability in guinea pig skin; assay: Vascular permeability assay (modified Miles assay); assay type: in vivo; settings: ManN 1 ng-5 μg, VEGF 25 ng, intradermal
# Protocol: Vascular permeability was assessed using a modified Miles assay. Hairless male guinea pigs (Crl: HA-Hrhr/IAF, 75 days old, 450-500 g, Charles River Laboratories) were anesthetized by intraperitoneal (i.p.) administration of xylazine (5 mg/kg) and ketamine (75 mg/kg). The animals then received an intravenous injection (penile vein) of 1 ml of 1% Evans blue dye. After 15 mins, intradermal injections (0.05 ml/per site) of different doses of ManN were administrated into the area of trunk posterior to the shoulder. All reagents were diluted in PBS for intradermal administration. 25 ng of VEGF165 per site was used as positive control. 30 mins after the intradermal injections, animals were euthanized by i.p. injection of pentobarbital (200 mg/kg). Skin tissues were dissected from the connective tissues and photographed.
smiles,measurement,setting,value
"N[C@H](C=O)[C@@H](O)[C@H](O)[C@H](O)CO [ManN, 2-Amino-2-deoxy-D-mannose]","fucose, mannose, galactose and Neu5Ac content",[1],significant decrease
same,plasma ManN after 3 hours relative to peak,[2],about half of that amount
same,plasma free ManN peak level,[2],~100 nmol/ml plasma
same,time of plasma peak level,[2],1 h
same,ManN-6p in ischemic leg muscle,[2]; 2 h,0.91+1−0.24 nmol/mg protein
same,free ManN in ischemic leg muscle,[2]; 2 h,0.17+1−0.18 nmol/mg protein
same,growth of A673,[3],did not promote growth
same,induction of vascular permeability,[4],no permeability-enhancing effects
